# Data published in US20220304978A1, “INHIBITING MESANGIAL CELL ACTIVATION” (Chinook Therapeutics, Inc., priority 2019, published 2022).
# Test system: kidney tissue of g-ddY mice
# Assay: RNA-seq differential gene expression in kidney tissue of g-ddY mice
# Type: in vivo, mouse
# Description: RNA isolation and sequencing libraries were generated using standard protocols. Sequencing was performed using an Illumina NextSeq500 using manufacturer's instructions with a read length of 75 bp and a read depth of 30 million. Raw data was assembled to FASTQ files. Following QC analysis, high quality sequencing reads (e.g., reads with a Phred quality score >36) were aligned to the mouse reference genome (GRCm38-mm10) using the default parameters of the align algorithm and transcript count tables of each library was generated using the default parameters of the featureCounts algorithm of the RSubread package (Liao Y, Smyth GK, Shi W, 2019). High quality sequencing reads mapped to 27,129 genes. Following additional QC of low count filtering (i.e. transcripts <10 counts across all samples), 16,207 genes were identified and used for further analysis. The remaining sequencing read counts of the included 16,207 genes were normalized to library size, log-transformed, and were quantified as counts per million (CPM). Select RNA-seq counts were validated using qPCR. Sequencing read counts (CPM) were used for identification of differential gene expression between specified populations using the quasi-likelihood methodology of the edgeR package. […] MA plots were generated using edgeR. Heatmaps and other plots were generated using the gplots and ggplot2 package.
# [1] = 20 mg/kg/day vs control, cell proliferation signaling
# [2] = 20 mg/kg/day vs control, inflammatory response signaling
# [3] = 20 mg/kg/day vs control, mesangial cell signature
# [4] = 30 mg/kg/day vs control, IL6 signaling
# [5] = 30 mg/kg/day vs control, NF-kB signaling
# [6] = 30 mg/kg/day vs control, PDGF signaling
# [7] = 30 mg/kg/day vs control, cell proliferation signaling
# [8] = 30 mg/kg/day vs control, inflammatory response signaling
# [9] = 30 mg/kg/day vs control, mesangial cell signature
smiles,measurement,setting,value
"CCCCN(CCCC)C(=O)CN1C[C@H](c2ccc3c(c2)OCO3)[C@@H](C(=O)O)[C@@H]1c1ccc(OC)cc1 [atrasentan, (2R,3R,4S)-4-(1,3-benzodioxol-5-yl)-1-[2-(dibutylamino)-2-oxoethyl]-2-(4-methoxyphenyl)pyrrolidine-3-carboxylic acid]",Rapgef5 logFC,[1],−0.3804
same,Rhot2 logFC,[1],0.4576
same,Slc7a1 logFC,[1],−0.7304
same,Slc12a2 logFC,[1],−0.3373
same,Slc38a1 logFC,[1],−0.6989
same,Smc3 logFC,[1],−0.1696
same,Sorbs2 logFC,[1],−0.4717
same,Tiam1 logFC,[1],−0.9494
same,Tuba4a logFC,[1],0.2861
same,Vcl logFC,[1],−0.3317
same,Ythdc1 logFC,[1],−0.0815
same,Btg2 logFC,[2],−0.6974
same,Cdkn1a logFC,[2],0.2546
same,Chst2 logFC,[2],−0.368
same,Csf1 logFC,[2],−1.089
same,Edn1 logFC,[2],−1.328
same,Eif2ak2 logFC,[2],−0.3002
same,F3 logFC,[2],−0.5235
same,Gabbr1 logFC,[2],−0.1316
same,Hpn logFC,[2],0.4187
same,Il1r1 logFC,[2],−0.8263
same,Ly6e logFC,[2],0.2436
same,Nfkb1 logFC,[2],−0.616
same,Nfkbia logFC,[2],−0.7041
same,Rnf144b logFC,[2],−0.9765
same,Ros1 logFC,[2],−1.992
same,Serpine1 logFC,[2],−1.501
same,Slc4a4 logFC,[2],0.5245
same,Slc7a1 logFC,[2],−0.7304
same,Slc7a2 logFC,[2],−1.336
same,Slc11a2 logFC,[2],0.35
same,Ahnak logFC,[3],−0.7128
same,Akap12 logFC,[3],−0.5404
same,Akt3 logFC,[3],−0.4673
same,Aldob logFC,[3],0.4923
same,Ankrd12 logFC,[3],−0.2463
same,C7 logFC,[3],−1.277
same,Cald1 logFC,[3],−0.5361
same,Cblb logFC,[3],−0.2068
same,Ebf1 logFC,[3],−0.3512
same,Epb41l2 logFC,[3],−0.6149
same,Ets1 logFC,[3],−0.3065
same,Fchsd2 logFC,[3],−0.1882
same,Frmd4a logFC,[3],−0.3955
same,Gata3 logFC,[3],−0.4924
same,Gpx3 logFC,[3],0.71
same,Igfbp7 logFC,[3],0.1088
same,Lama2 logFC,[3],−0.4437
same,Maml2 logFC,[3],−0.2311
same,Mef2c logFC,[3],−0.6302
same,Meis1 logFC,[3],−0.3593
same,Myh9 logFC,[3],−0.4543
same,Myo1e logFC,[3],−0.292
same,Nbea logFC,[3],−0.1933
same,Nfkbia logFC,[3],−0.7041
same,Nr4a1 logFC,[3],−1.621
same,Piezo2 logFC,[3],−0.6148
same,Postn logFC,[3],−2.293
same,Pparg logFC,[3],−0.5616
same,Ppp1r12a logFC,[3],−0.2135
same,Prkg1 logFC,[3],−0.328
same,Psd3 logFC,[3],−0.5227
same,Ptprm logFC,[3],−0.2678
same,Rapgef5 logFC,[3],−0.3804
same,Raph1 logFC,[3],−0.3852
same,Rbms3 logFC,[3],−0.7192
same,Robo1 logFC,[3],−0.7261
same,Stard13 logFC,[3],−0.6367
same,Tacc1 logFC,[3],−0.3693
same,Tcf4 logFC,[3],−0.224
same,Tjp1 logFC,[3],−0.3054
same,Tns3 logFC,[3],−0.3043
same,Unc5c logFC,[3],0.3685
same,Utrn logFC,[3],−0.5143
same,Zeb2 logFC,[3],−0.6492
same,Cntfr logFC,[4],−0.9365
same,Csf1 logFC,[4],−1.26
same,Il1r1 logFC,[4],−0.6078
same,Il2ra logFC,[4],−1.58
same,Map3k8 logFC,[4],−0.8664
same,Ackr3 logFC,[5],0.5485
same,Btg1 logFC,[5],−0.4825
same,Btg2 logFC,[5],−0.6689
same,Ccn1 logFC,[5],−0.9198
same,Ccnd1 logFC,[5],0.6947
same,Cdkn1a logFC,[5],0.6369
same,Csf1 logFC,[5],−1.26
same,Dnajb4 logFC,[5],−0.7534
same,Edn1 logFC,[5],−1.688
same,Efna1 logFC,[5],0.7278
same,Ehd1 logFC,[5],0.4138
same,F3 logFC,[5],−0.564
same,Fosl2 logFC,[5],−1.205
same,Gem logFC,[5],−1.912
same,Id2 logFC,[5],0.5394
same,Ifit2 logFC,[5],−0.6119
same,Jag1 logFC,[5],−0.6784
same,Klf2 logFC,[5],−0.7182
same,Klf4 logFC,[5],−0.9474
same,Map3k8 logFC,[5],−0.8664
same,Nfat5 logFC,[5],−0.5845
same,Nfkb1 logFC,[5],−0.6498
same,Nfkbia logFC,[5],−0.7307
same,Nr4a1 logFC,[5],−1.803
same,Nr4a2 logFC,[5],−1.728
same,Nr4a3 logFC,[5],−1.939
same,Per1 logFC,[5],−0.9307
same,Pfkfb3 logFC,[5],−1.485
same,Pnrcl logFC,[5],0.4856
same,Rel logFC,[5],−1.298
same,Rhob logFC,[5],−0.7265
same,Serpine1 logFC,[5],−1.387
same,Snn logFC,[5],0.4725
same,Spsb1 logFC,[5],−1.097
same,Tnfaip8 logFC,[5],0.517
same,Traf1 logFC,[5],−1.371
same,Trib1 logFC,[5],−1.074
same,Zbtb10 logFC,[5],−0.2912
same,Hras logFC,[6],0.4354
same,Map3k1 logFC,[6],−0.7636
same,Nfkb1 logFC,[6],−0.6498
same,Nfkbia logFC,[6],−0.7307
same,Pdgfb logFC,[6],−0.5424
same,Pdgfra logFC,[6],−0.7094
same,Pik3cg logFC,[6],−0.7287
same,Pik3r1 logFC,[6],−0.6223
same,Pla2g4a logFC,[6],−0.9024
same,Tiam1 logFC,[6],−1.227
same,Arid4a logFC,[7],−0.5719
same,Atrx logFC,[7],−0.4031
same,Bcar1 logFC,[7],0.4182
same,Ccdc88a logFC,[7],−0.7206
same,Ccnd1 logFC,[7],0.6947
same,Cep192 logFC,[7],−0.43
same,Cntrl logFC,[7],−0.5569
same,Dmd logFC,[7],−0.405
same,Epb41l2 logFC,[7],−0.7021
same,Fgd6 logFC,[7],−0.6983
same,Flna logFC,[7],−0.6183
same,Itsn1 logFC,[7],−0.5129
same,Kmt5a logFC,[7],0.4169
same,Meis1 logFC,[7],−0.4934
same,Myh9 logFC,[7],−0.6171
same,Myh10 logFC,[7],−0.5242
same,Myo1e logFC,[7],−0.4177
same,Nin logFC,[7],−0.7352
same,Ophn1 logFC,[7],−0.7129
same,Rapgef5 logFC,[7],−0.4225
same,Rhot2 logFC,[7],0.5432
same,Slc7a1 logFC,[7],−0.7952
same,Slc12a2 logFC,[7],−0.3306
same,Slc38a1 logFC,[7],−0.8108
same,Smc3 logFC,[7],−0.4558
same,Sorbs2 logFC,[7],−0.3601
same,Tiam1 logFC,[7],−1.227
same,Tuba4a logFC,[7],0.4958
same,Vcl logFC,[7],−0.3604
same,Ythdc1 logFC,[7],−0.3579
same,Btg2 logFC,[8],−0.6689
same,Cdkn1a logFC,[8],0.6369
same,Chst2 logFC,[8],−0.9214
same,Csf1 logFC,[8],−1.26
same,Edn1 logFC,[8],−1.688
same,Eif2ak2 logFC,[8],−0.5033
same,F3 logFC,[8],−0.564
same,Gabbr1 logFC,[8],−0.5762
same,Hpn logFC,[8],0.6197
same,Il1r1 logFC,[8],−0.6078
same,Ly6e logFC,[8],0.6857
same,Nfkb1 logFC,[8],−0.6498
same,Nfkbia logFC,[8],−0.7307
same,Rnf144b logFC,[8],−0.8848
same,Ros1 logFC,[8],−1.985
same,Serpine1 logFC,[8],−1.387
same,Slc4a4 logFC,[8],0.6146
same,Slc7a1 logFC,[8],−0.7952
same,Slc7a2 logFC,[8],−0.9808
same,Slc11a2 logFC,[8],0.4205
same,Ahnak logFC,[9],−1.013
same,Akap12 logFC,[9],−0.8211
same,Akt3 logFC,[9],−0.4843
same,Aldob logFC,[9],0.748
same,Ankrd12 logFC,[9],−0.4726
same,C7 logFC,[9],−1.079
same,Cald1 logFC,[9],−0.506
same,Cblb logFC,[9],−0.4288
same,Ebf1 logFC,[9],−0.4506
same,Epb41l2 logFC,[9],−0.7021
same,Ets1 logFC,[9],−0.3379
same,Fchsd2 logFC,[9],−0.3772
same,Frmd4a logFC,[9],−0.5742
same,Gata3 logFC,[9],−0.5216
same,Gpx3 logFC,[9],1.122
same,Igfbp7 logFC,[9],0.4259
same,Lama2 logFC,[9],−0.4895
same,Maml2 logFC,[9],−0.4441
same,Mef2c logFC,[9],−0.6869
same,Meis1 logFC,[9],−0.4934
same,Myh9 logFC,[9],−0.6171
same,Myo1e logFC,[9],−0.4177
same,Nbea logFC,[9],−0.432
same,Nfkbia logFC,[9],−0.7307
same,Nr4a1 logFC,[9],−1.803
same,Piezo2 logFC,[9],−0.8237
same,Postn logFC,[9],−1.247
same,Pparg logFC,[9],−0.6781
same,Ppp1r12a logFC,[9],−0.3826
same,Prkg1 logFC,[9],−0.6356
same,Psd3 logFC,[9],−0.5843
same,Ptprm logFC,[9],−0.5453
same,Rapgef5 logFC,[9],−0.4225
same,Raph1 logFC,[9],−0.5358
same,Rbms3 logFC,[9],−0.8895
same,Robo1 logFC,[9],−0.6009
same,Stard13 logFC,[9],−0.8466
same,Tacc1 logFC,[9],−0.4924
same,Tcf4 logFC,[9],−0.3055
same,Tjp1 logFC,[9],−0.3989
same,Tns3 logFC,[9],−0.4522
same,Unc5c logFC,[9],0.9517
same,Utrn logFC,[9],−0.7697
same,Zeb2 logFC,[9],−0.6778
